Data reported in patent publication US9114163B2, “Medication against breast cancer and related diseases” (MaBel GmbH, priority 2006, dated 2015).

Experiments:
[1] = test system: normal or mastopathic breast tissue; assay: Double blind clinical test, topical cream, patients with non-malign breast tissue; type: in vivo, human; conditions: 4 patients with non-malign disease states, topical administration
Method: (§1) Double blind clinical tests were conducted with a group of 10 female patients. In this clinical testing, particular attention was paid to hormone receptor statuses of patients' target breast cancer tissue regarding progesterone receptor (PR) and in particular regarding estrogen receptor (ER); The cancers of the patients were assumed to be predominantly androgen receptor (AR) positive. Among this group, six patients had histologically ascertained malign breast carcinoma (C. mammae). […] In a sixth patient, the presence of a malign breast carcinoma was ascertained, but the amount of cancer tissue was too low to determine receptor status.
(§2) All 10 female patients were topically and locally treated using 4-hydroxytestosterone as active agent, by administering of a cream as described in Example 2 locally to target skin portions of the breasts. After continuing daily topical administration once a day during an administration period of 3 months, clinical investigations on therapeutic effects were performed.

[2] = test system: malign breast carcinoma (C. mammae); assay: Double blind clinical test, topical cream, patients with malign breast carcinoma; type: in vivo, human; conditions: for Clinical Remission: topical cream once a day
Method: as §1, §2
The results of the 6 patients having malign breast carcinoma are shown in the following Table 1, together with the receptor status determined for patient nos. 1 to 5.

[3] = test system: MCF-7 cells; assay: Inhibition of MCF-7 cell proliferation (counting of vital cells); type: cell-based, human; conditions: 10^-7 M, 10^-8 M, 10^-9 M; cell counts after 3, 6 and 9 days; compared with DHT and control
Method: MCF-7 cells were grown in RPMI 1640 medium at 37° C. to a cell number of about 1*10^5 cells/ml. Then, in quadruple identical MCF-7 cell samples, there were added either dihydrotestosterone (DHT) or 4-hydroxytestosterone (4-OHT), to obtain different concentrations thereof, namely 10^−7 M, 10^−8 M or 10^−9 M, and further growth of cells were determined by counting of vital cells. During the course of incubation at 37° C., cell counting were performed after 3, 6 and 9 days. For control, growth of MCF-7 cells were determined without addition of an active agent.
The results on an inhibition of MCF-7 cell proliferation are shown in FIGS. 1A, 1B and 1C for the compound concentrations of 10^−7 M, 10^−8 M and 10^−9 M of either DHT or 4-OHT, respectively, and compared with the control.

C[C@]12CC[C@H]3[C@@H](CCC4=C(O)C(=O)CC[C@@]43C)[C@@H]1CC[C@@H]2O [4-hydroxytestosterone, 4,17β-dihydroxyandrost-4-ene-3-one]
tissue reduction of normal or mastopathic appearing tissues [1]: clear tendency for tissue reduction
Clinical Remission ([2]; Patient # 1, ER 0, PR 0, Her2neu 0, 3 months): yes
Clinical Remission ([2]; Patient # 3, ER 0, PR 0, Her2neu 0, 3 months): yes
Clinical Remission ([2]; Patient # 6, receptor status not determined, 3 months): yes
treatment of ER negative cancer cells ([2]; clinical study, ER negative tumours, topical cream, 3 months): effectively treated
efficacy in shrinking cancerous tissues ([2]; clinical study, topical cream, 3 months): excellent efficacy in shrinking cancerous tissues
patients with noticeable remission of breast cancer tissues as determined by mammography ([2]; of 6 patients with malign breast carcinoma, those so far subjected to post-treatment investigation, 3 months topical): three
inhibitory effect on MCF-7 cell proliferation [3]: significantly enhanced inhibitory effect
